In patent publication US4593090A, “Novel nitrosourea compounds, method for preparing same, and pharmaceutical composition containing same” (Gogo Kimura, priority 1981, dated 1986):

Legend:
[1] = Acute toxicity (LD50, Behrens-Karber method); assay type: in vivo, ICR mice; settings: mouse, in vivo, ip, mortality during 30 days
Procedure: Test compounds, dissolved or suspended in 0.5% aqueous CMC, were each intraperitoneally administered to ICR mice in a dose of 0.1 ml per 10 g body weight. LD50 (mg/kg) value of each test compound was calculated from the mortality of mice during 30 days by the Behrens-Karber method.

Leukemia L1210 = experiment: Activity against Leukemia L1210, intraperitoneal, increase in life span of mice; assay type: in vivo, female mice (BDF1 family); settings: for ED (maximum ILS) / ED30: Mus musculus, L1210, ip, ip once a day for 5 successive days; for ED (maximum ILS): daily dosage giving maximum increase of life span, read-out: O.D. (optimum dosage); for ED30: daily dosage increasing average survival days by 30%, read-out: ILS30; for Survivors after 60 days / Max. ILS % / Therapeutic ratio TR: ip; for Survivors after 60 days: 6-membered group; for Max. ILS %: 60-day observation, versus control; for Therapeutic ratio TR: O.D./ILS30
Procedure: Tests were conducted in accordance with the method for measuring antitumor activity of National Cancer Center Tokyo (A, Hoshi et al, Farumashia 9 464 (1973)). Test compounds were each intraperitoneally (referred to as ip) or orally (referred to as op) administered once a day for 5 successive days to a 6-membered group of femal mice (BDF1 family, each weighing 20 to 23 g) 24 hours after 1×10^5 cells of Leukemia L1210 have been implantated into the abdominal cavities of the mice, and the effect was evaluated by comparing the survival days of treated groups with those of an untreated group of mice (control group) in 60-day observation. An increase percentage of life span (ILS%) was calculated from said average survival days compared with those of the control group. Further, therapeutic ratio (O.D./ILD30, referred to as T.R.) of each tested compound was calculated from the daily dosage of the compound necessary to increase said average survival days by 30% as compared with the control group (this dosage is referred to as ILS 30) and the daily dosage giving a maximum increase of life span to mice implantated with L1210 cells, namely an optimum dosage (referred to as O.D.). The results of five successive days intraperitoneal administrations of test compounds were shown in Tables I to III, and those of five successive oral administrations in Table IV.

SMILES	LD50 at 720 h [1]	ED (maximum ILS) (Leukemia L1210)	ED30 (Leukemia L1210)	Survivors after 60 days (Leukemia L1210)	Max. ILS % (Leukemia L1210)	Therapeutic ratio TR (Leukemia L1210)
CCCCN(C[C@H]1O[C@H](OC)[C@H](O)[C@@H](O)[C@@H]1O)C(=O)N(CCCl)N=O [Compound 6MCαGB, 3-n-butyl-3-(methyl α-D-glucopyranose-6-yl)-1-(2-chloroethyl)-1-nitrosourea, reference compound]	92 mg/kg	30 mg/kg	1.34 mg/kg	4/6	> 440%	22.4
CC(C)COC1OC(CO)C(N(CC2CC2)C(=O)N(CCCl)N=O)C(O)C1O [Compound 95, 3-cyclopropylmethyl-3-(isobutyl α-D-glucopyranose-4-yl)-1-(2-chloroethyl)-1-nitrosourea]	400 mg/kg	120 mg/kg	3.82 mg/kg	3/6	> 360%	31.4
CC(C)CO[C@H]1O[C@H](CN(Cc2ccco2)C(=O)N(CCCl)N=O)[C@@H](O)[C@H](O)[C@H]1O [Compound 24, 3-furfuryl-3-(isobutyl α-D-glucopyranose-6-yl)-1-(2-chloroethyl)-1-nitrosourea]	555 mg/kg	180 mg/kg	3.1 mg/kg	5/6	> 620%	58.1
Cc1ccc(CN(C[C@H]2O[C@H](OCC(C)C)[C@H](O)[C@@H](O)[C@H]2O)C(=O)N(CCCl)N=O)cc1 [Compound 111, 3-(p-methylbenzyl)-3-(isobutyl α-D-galactopyranose-6-yl)-1-(2-chloroethyl)-1-nitrosourea]	600 mg/kg	200 mg/kg	7.04 mg/kg	3/6	> 345%	28.4
COc1ccc(CN(C[C@H]2O[C@H](OC3CCCCC3)[C@H](O)[C@@H](O)[C@@H]2O)C(=O)N(CCCl)N=O)cc1 [Compound 48, 3-(p-methoxybenzyl)-3-(cyclohexyl α-D-glucopyranose-6-yl)-1-(2-chloroethyl)-1-nitrosourea]	530 mg/kg	170 mg/kg	4.64 mg/kg	4/6	> 445%	36.6
CCC(C)O[C@H]1O[C@H](CO)[C@@H](O)[C@H](O)[C@H]1N(CC(C)C)C(=O)N(CCCl)N=O (stereo partly drawn) [Compound 59, 3-isobutyl-3-(sec-butyl α-D-glucopyranose-2-yl)-1-(2-chloroethyl)-1-nitrosourea]	605 mg/kg	200 mg/kg	5.8 mg/kg	3/6	> 348%	34.5
COCC(C)O[C@H]1O[C@H](CN(CC2CC2)C(=O)N(CCCl)N=O)[C@@H](O)[C@H](O)[C@H]1O (stereo partly drawn) [Compound 34, 3-cyclopropylmethyl-3-(1-methyl-2-methoxyethyl α-D-glucopyranose-6-yl)-1-(2-chloroethyl)-1-nitrosourea]	480 mg/kg	150 mg/kg	2.34 mg/kg	6/6	> 700%	64.1
COc1cc(CO[C@H]2O[C@H](CN(CC(C)C)C(=O)N(CCCl)N=O)[C@@H](O)[C@H](O)[C@H]2O)cc(OC)c1OC [Compound 53, 3-isobutyl-3-(3,4,5-trimethoxybenzyl α-D-glucopyranose-6-yl)-1-(2-chloroethyl)-1-nitrosourea]	350 mg/kg	120 mg/kg	3.95 mg/kg	4/6	> 425%	30.4
CCC(C)O[C@H]1O[C@H](CN(CC(C)C)C(=O)N(CCCl)N=O)[C@@H](O)[C@H](O)[C@H]1O (stereo partly drawn) [Compound 17, 3-isobutyl-3-(sec-butyl α-D-glucopyranose-6-yl)-1-(2-chloroethyl)-1-nitrosourea]	510 mg/kg	170 mg/kg	3.55 mg/kg	6/6	> 700%	47.9
COCCN(C(=O)N(CCCl)N=O)[C@@H]1[C@@H](OCCc2ccccc2)O[C@H](CO)[C@@H](O)[C@H]1O [Compound 142, 3-(2-methoxyethyl)-3-(phenyl-β-ethyl α-D-altropyranose-2-yl)-1-(2-chloroethyl)-1-nitrosourea]	500 mg/kg	160 mg/kg	4.16 mg/kg	3/6	> 350%	38.5
CCCN(C[C@@H]1O[C@@H](OCC(C)C)[C@@H](O)[C@H](O)[C@@H]1O)C(=O)N(CCCl)N=O [Compound 133, 3-n-propyl-3-(isobutyl α-L-galactopyranose-6-yl)-1-(2-chloroethyl)-1-nitrosourea]	495 mg/kg	150 mg/kg	4.11 mg/kg	3/6	> 360%	36.5
CC(C)(C)O[C@H]1O[C@H](CN(C(=O)N(CCCl)N=O)C2CCCCC2)[C@@H](O)[C@H](O)[C@H]1O [Compound 173, 3-cyclohexyl-3-(tert-butyl α-D-glucopyranose-6-yl)-1-(2-chloroethyl)-1-nitrosourea]	510 mg/kg	160 mg/kg	3.16 mg/kg	5/6	> 630%	50.6
CCCCO[C@H]1O[C@H](CN(CCC)C(=O)N(CCCl)N=O)[C@@H](O)[C@H](O)[C@H]1O [Compound 5, 3-n-propyl-3-(n-butyl α-D-glucopyranose-6-yl)-1-(2-chloroethyl)-1-nitrosourea]	325 mg/kg	100 mg/kg	2.6 mg/kg	6/6	> 700%	38.5
CCC(C)N(C[C@H]1O[C@H](OC2CCCCC2)[C@H](O)[C@@H](O)[C@@H]1O)C(=O)N(CCCl)N=O (stereo partly drawn) [Compound 37, 3-sec-butyl-3-(cyclohexyl α-D-glucopyranose-6-yl)-1-(2-chloroethyl)-1-nitrosourea]	605 mg/kg	200 mg/kg	3.69 mg/kg	5/6	> 620%	54.2
CC(C)CCN(C(=O)N(CCCl)N=O)[C@H]1[C@@H](O)[C@@H](CO)O[C@H](OCC(C)C)[C@@H]1O [Compound 127, 3-isoamyl-3-(isobutyl α-D-galactopyranose-3-yl)-1-(2-chloroethyl)-1-nitrosourea]	600 mg/kg	200 mg/kg	6.56 mg/kg	3/6	> 340%	30.5
COCC(C)O[C@H]1O[C@H](CN(CC(C)C)C(=O)N(CCCl)N=O)[C@@H](O)[C@@H](O)[C@@H]1O (stereo partly drawn) [Compound 144, 3-isobutyl-3-(1-methyl-2-methoxyethyl α-D-altropyranose-6-yl)-1-(2-chloroethyl)-1-nitrosourea]	580 mg/kg	160 mg/kg	2.8 mg/kg	6/6	> 700%	57.1
O=NN(CCCl)C(=O)N(CC1CCCO1)[C@H]1[C@H](O)[C@@H](OCCc2ccccc2)O[C@H](CO)[C@H]1O (stereo partly drawn) [Compound 143, 3-tetrahydrofurfuryl-3-(phenyl-β-ethyl α-D-altropyranose-3-yl)-1-(2-chloroethyl)-1-nitrosourea]	460 mg/kg	150 mg/kg	3.52 mg/kg	4/6	> 425%	42.6
COc1ccc(CN(C(=O)N(CCCl)N=O)[C@H]2[C@@H](OCC(C)C)O[C@H](CO)[C@H](O)[C@@H]2O)cc1 [Compound 120, 3-(p-methoxybenzyl)-3-(isobutyl α-D-galactopyranose-2-yl)-1-(2-chloroethyl)-1-nitrosourea]	550 mg/kg	170 mg/kg	6.59 mg/kg	3/6	> 340%	25.8
CC(C)CO[C@H]1O[C@H](CO)[C@H](O)[C@H](O)[C@H]1N(CC(C)C)C(=O)N(CCCl)N=O [Compound 122, 3-isobutyl-3-(isobutyl α-D-galactopyranose-2-yl)-1-(2-chloroethyl)-1-nitrosourea]	715 mg/kg	200 mg/kg	6.85 mg/kg	3/6	> 355%	29.2
CCCN(C(=O)N(CCCl)N=O)[C@@H]1[C@@H](O)[C@@H](OC2CCCCC2)OC[C@H]1O [Compound 147, 3-n-propyl-3-(cyclohexyl α-D-xylopyranose-3-yl)-1-(2-chloroethyl)-1-nitrosourea]	430 mg/kg	150 mg/kg	3.91 mg/kg	3/6	> 350%	38.4
